In patent publication US9540343B2 (Gilead Sciences, Inc., priority 2011, dated 2017):

Key:
[1] = in vitro; conditions: human, uninfected MT-4 cells, CC50 (nM), same protocol as Test A, CellTiter-Glo
Summary of the method: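 Cytoprotection read-out: CellTiter-Glo chemiluminescence after 5 days at 37 °C of HIV-IIIb-infected MT-4 cells (m.o.i. 0.003) with compound in 10-point 3-fold dilutions, quadruplicate, 10% FBS. Cytotoxicity (CC50) measured identically without virus.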

[2] = tested on: HIV-IIIb; test: Test A: Antiviral assay in MT4 cells; type: cell-based, HIV-1; conditions: Human immunodeficiency virus 1, IIIB, MT4, 120 h, read-out: % inhibition at 2 μM, percent inhibition of virus-induced cell killing, from dose response curve at 2 uM drug; MT-4 cells infected with HIV-IIIb, 5 days, CellTiter-Glo

**Q.** For O=C(Cn1nc(C(F)F)c2c1C(F)(F)C1CC21)N[C@@H](Cc1cc(F)cc(F)c1)c1ncccc1-c1ccc(NC(=O)NC2CC2)cc1 (stereo partly drawn) [Example 114, (S)—N-(1-(3-(4-(3-cyclopropylureido)phenyl)-pyridin-2-yl)-2-(3,5-difluorophenyl)ethyl)-2-(3-(difluoromethyl)-5,6-dihydro-4,5-(methano)-6,6-difluoro-cyclopenta[c]pyrazol-1(4H)-yl)acetamide], which CC50 at 5 days [1] is on record?
**A.** The CC50 at 5 days was > 53200 nM.

**Q.** What about the inhibition at 2 µM [2] of the same molecule?
**A.** Its inhibition at 2 µM is 32%.

**Q.** Which CC50 at 5 days [1] does the source give for CCN(CC)S(=O)(=O)c1ccc(-c2cccnc2[C@H](Cc2cc(F)cc(F)c2)NC(=O)Cn2nc(C(F)F)c3c2C(F)(F)C2CC32)cc1 (stereo partly drawn) [Example 116, (S)—N-(1-(3-(4-(N,N-diethylsulfamoyl)phenyl)-pyridin-2-yl)-2-(3,5-difluorophenyl)ethyl)-2-(3-(difluoromethyl)-5,6-dihydro-4,5-(methano)-6,6-difluoro-cyclopenta[c]pyrazol-1(4H)-yl)acetamide] here?
**A.** The CC50 at 5 days was > 53200 nM.

**Q.** And the inhibition at 2 µM [2]?
**A.** The inhibition at 2 µM was 72%.

**Q.** For O=C(Cn1nc(C(F)(F)F)c2c1CCCC2)N[C@@H](Cc1cc(F)cc(F)c1)c1ncccc1-c1cccc(F)c1 [Example 117, (S)—N-(2-(3,5-difluorophenyl)-1-(3-(3-fluorophenyl)pyridin-2-yl)ethyl)-2-(3-(trifluoromethyl)-4,5,6,7-tetrahydro-1H-indazol-1-yl)acetamide], which CC50 at 5 days [1] is on record?
**A.** Its CC50 at 5 days is 8260 nM.

**Q.** And the inhibition at 2 µM [2]?
**A.** The inhibition at 2 µM was 89%.

**Q.** For CN(C)S(=O)(=O)c1ccc(-c2cccnc2[C@H](Cc2cc(F)cc(F)c2)NC(=O)Cn2nc(C(F)F)c3c2C(F)(F)C2CC32)cc1 (stereo partly drawn) [Example 119, (S)—N-(1-(3-(4-(N,N-dimethylsulfamoyl)phenyl)-pyridin-2-yl)-2-(3,5-difluorophenyl)ethyl)-2-(3-(difluoromethyl)-5,6-dihydro-4,5-(methano)-6,6-difluoro-cyclopenta[c]pyrazol-1(4H)-yl)acetamide], which CC50 at 5 days [1] is on record?
**A.** Its CC50 at 5 days is > 53200 nM.

**Q.** And the inhibition at 2 µM [2]?
**A.** Its inhibition at 2 µM is 48%.

**Q.** What does the source list for O=C(Cn1nc(C(F)F)c2c1C(F)(F)C1CC21)N[C@@H](Cc1cc(F)cc(F)c1)c1ncccc1-c1cncc2ccccc12 (stereo partly drawn) [Example 120, 2-(3-(difluoromethyl)-5,5-difluoro-3b,4,4a,5-tetrahydro-1H-cyclopropa[3,4]cyclopenta[1,2-c]pyrazol-1-yl)-N—((S)-2-(3,5-difluorophenyl)-1-(3-(isoquinolin-4-yl)pyridin-2-yl)ethyl)acetamide]?
**A.** CC50 at 5 days [1]: 13800 nM; inhibition at 2 µM [2]: 73%

**Q.** Which results are given for O=C(Cn1nc(C(F)(F)F)c2c1COCC2)N[C@@H](Cc1cc(F)cc(F)c1)c1ncccc1-c1ccc(Cl)cc1 [Example 121, (S)—N-(1-(3-(4-chlorophenyl)pyridin-2-yl)-2-(3,5-difluorophenyl)ethyl)-2-(3-(trifluoromethyl)-4,5-dihydropyrano[3,4-c]pyrazol-1(7H)-yl)acetamide]?
**A.** CC50 at 5 days [1]: 9100 nM; inhibition at 2 µM [2]: 68%

**Q.** For NC(=O)c1cc(-c2cccnc2[C@H](Cc2cc(F)cc(F)c2)NC(=O)Cn2[nH]c(=O)c3c2CCCC3)ccc1F [Example 123E, (S)-5-(2-(2-(3,5-difluorophenyl)-1-(2-(3-oxo-2,3,4,5,6,7-hexahydro-1H-indazol-1-yl)acetamido)ethyl)pyridin-3-yl)-2-fluorobenzamide], which CC50 at 5 days [1] is on record?
**A.** Its CC50 at 5 days is > 53200 nM.

**Q.** What about the inhibition at 2 µM [2] of the same molecule?
**A.** Its inhibition at 2 µM is 84%.

**Q.** What does the source list for O=C(Cn1nc(C(F)F)c2c1C(F)(F)C1CC21)N[C@@H](Cc1cc(F)cc(F)c1)c1ncncc1-c1ccc2cccnc2c1 (stereo partly drawn) [Example 124C, 2-(3-(difluoromethyl)-5,5-difluoro-3b,4,4a,5-tetrahydro-1H-cyclopropa[3,4]cyclopenta[1,2-c]pyrazol-1-yl)-N—((S)-2-(3,5-difluorophenyl)-1-(5-(quinolin-7-yl)pyrimidin-4-yl)ethyl)acetamide]?
**A.** CC50 at 5 days [1]: 20200 nM; inhibition at 2 µM [2]: 77%

**Q.** Which CC50 at 5 days [1] does the source give for NC(=O)c1cc(-c2cccnc2[C@H](Cc2cc(F)cc(F)c2)NC(=O)[C@H]2CCC(=O)N2)ccc1F [Example 125, (R)—N—((S)-1-(3-(3-carbamoyl-4-fluorophenyl)pyridin-2-yl)-2-(3,5-difluorophenyl)ethyl)-5-oxopyrrolidine-2-carboxamide] here?
**A.** The CC50 at 5 days was > 53000 nM.

**Q.** And the inhibition at 2 µM [2]?
**A.** Its inhibition at 2 µM is 0%.

**Q.** With NC(=O)c1cc(-c2cccnc2[C@H](Cc2cc(F)cc(F)c2)NC(=O)C2CCCN2C(=O)c2ccccc2)ccc1F (stereo partly drawn) [Example 126, 1-benzoyl-N—((S)-1-(3-(3-carbamoyl-4-fluorophenyl)pyridin-2-yl)-2-(3,5-difluorophenyl)ethyl)pyrrolidine-2-carboxamide] as the molecule, how does the CC50 at 5 days [1] read?
**A.** Its CC50 at 5 days is > 53000 nM.

**Q.** And the inhibition at 2 µM [2]?
**A.** The inhibition at 2 µM was 7%.

**Q.** Which CC50 at 5 days [1] does the source give for O=C(Cn1nc(C(F)F)c2c1C(F)(F)C1CC21)N[C@@H](Cc1cc(F)cc(F)c1)c1ncncc1-c1cccc2[nH]cnc12 (stereo partly drawn) [Example 127C, N—((S)-1-(5-(1H-benzo[d]imidazol-4-yl)pyrimidin-4-yl)-2-(3,5-difluorophenyl)ethyl)-2-(3-(difluoromethyl)-5,5-difluoro-3b,4,4a,5-tetrahydro-1H-cyclopropa[3,4]cyclopenta[1,2-c]pyrazol-1-yl)acetamide] here?
**A.** Its CC50 at 5 days is 31900 nM.

**Q.** What about the inhibition at 2 µM [2] of the same molecule?
**A.** Its inhibition at 2 µM is 97%.

**Q.** Which results are given for CCOC(=O)N1CCCC1C(=O)N[C@@H](Cc1cc(F)cc(F)c1)c1ncccc1-c1ccc(F)c(C(N)=O)c1 (stereo partly drawn) [Example 128, ethyl 2-((S)-1-(3-(3-carbamoyl-4-fluorophenyl)pyridin-2-yl)-2-(3,5-difluorophenyl)ethylcarbamoyl)pyrrolidine-1-carboxylate]?
**A.** CC50 at 5 days [1]: 23500 nM; inhibition at 2 µM [2]: 7%

**Q.** With NC(=O)c1cc(-c2cccnc2[C@H](Cc2cc(F)cc(F)c2)NC(=O)Cn2nc(C(F)(F)OCc3ccccn3)c3c2CCCC3)ccc1OCc1ccccn1 [Example 129, (S)-5-(2-(1-(2-(3-(difluoro(pyridin-2-ylmethoxy)methyl)-4,5,6,7-tetrahydro-1H-indazol-1-yl)acetamido)-2-(3,5-difluorophenyl)ethyl)pyridin-3-yl)-2-(pyridin-2-ylmethoxy)benzamide] as the molecule, how does the CC50 at 5 days [1] read?
**A.** The CC50 at 5 days was 10200 nM.

**Q.** And the inhibition at 2 µM [2]?
**A.** Its inhibition at 2 µM is 0%.

**Q.** For NC(=O)c1cc(-c2cccnc2[C@H](Cc2cc(F)cc(F)c2)NC(=O)Cn2nc(C(F)(F)F)cc2C2=CCCC2)ccc1F [Example 130D, (S)-5-(2-(1-(2-(5-cyclopentenyl-3-(trifluoromethyl)-1H-pyrazol-1-yl)acetamido)-2-(3,5-difluorophenyl)ethyl)pyridin-3-yl)-2-fluorobenzamide], which CC50 at 5 days [1] is on record?
**A.** Its CC50 at 5 days is 15800 nM.

**Q.** And the inhibition at 2 µM [2]?
**A.** The inhibition at 2 µM was 39%.

**Q.** Which results are given for O=C(Cn1nc(C(F)F)c2c1C(F)(F)C1CC21)N[C@@H](Cc1cc(F)cc(F)c1)c1ncncc1-c1ccc2cnccc2c1 (stereo partly drawn) [Example 131C, 2-(3-(difluoromethyl)-5,5-difluoro-3b,4,4a,5-tetrahydro-1H-cyclopropa[3,4]cyclopenta[1,2-c]pyrazol-1-yl)-N—((S)-2-(3,5-difluorophenyl)-1-(5-(isoquinolin-6-yl)pyrimidin-4-yl)ethyl)acetamide]?
**A.** CC50 at 5 days [1]: 10400 nM; inhibition at 2 µM [2]: 47%

**Q.** With CC(C)(C)OC(=O)N1C[C@H](O)C[C@H]1C(=O)N[C@@H](Cc1cc(F)cc(F)c1)c1ncccc1-c1ccc(F)c(C(N)=O)c1 [Example 132, (2S,4R)-tert-butyl 2-((S)-1-(3-(3-carbamoyl-4-fluorophenyl)pyridin-2-yl)-2-(3,5-difluorophenyl)ethylcarbamoyl)-4-hydroxypyrrolidine-1-carboxylate] as the molecule, how does the CC50 at 5 days [1] read?
**A.** Its CC50 at 5 days is 22300 nM.

**Q.** And the inhibition at 2 µM [2]?
**A.** Its inhibition at 2 µM is 7%.

**Q.** With CC(C)(C)OC(=O)N1CCOC[C@@H]1C(=O)N[C@@H](Cc1cc(F)cc(F)c1)c1ncccc1-c1ccc(F)c(C(N)=O)c1 [Example 133, (R)-tert-butyl 3-((S)-1-(3-(3-carbamoyl-4-fluorophenyl)pyridin-2-yl)-2-(3,5-difluorophenyl)ethylcarbamoyl)morpholine-4-carboxylate] as the molecule, how does the CC50 at 5 days [1] read?
**A.** Its CC50 at 5 days is > 53000 nM.

**Q.** And the inhibition at 2 µM [2]?
**A.** Its inhibition at 2 µM is 1%.

**Q.** Which CC50 at 5 days [1] does the source give for NC(=O)c1cc(-c2cccnc2[C@H](Cc2cc(F)cc(F)c2)NC(=O)Cn2nc(C(F)(F)OCc3ccccn3)c3c2CCCC3)ccc1F [Example 135, (S)-5-(2-(1-(2-(3-(difluoro(pyridin-2-ylmethoxy)methyl)-4,5,6,7-tetrahydro-1H-indazol-1-yl)acetamido)-2-(3,5-difluorophenyl)ethyl)pyridin-3-yl)-2-fluorobenzamide] here?
**A.** The CC50 at 5 days was 21100 nM.

**Q.** And the inhibition at 2 µM [2]?
**A.** Its inhibition at 2 µM is 53%.

**Q.** With NC(=O)c1cc(-c2cncnc2[C@H](Cc2cc(F)cc(F)c2)NC(=O)Cn2nc(C(F)(F)F)c3c2CC2CC32)ccc1F (stereo partly drawn) [Example 136D, 5-(4-((1S)-2-(3,5-difluorophenyl)-1-(2-(3-(trifluoromethyl)-3b,4,4a,5-tetrahydro-1H-cyclopropa[3,4]cyclopenta[1,2-c]pyrazol-1-yl)acetamido)ethyl)pyrimidin-5-yl)-2-fluorobenzamide] as the molecule, how does the CC50 at 5 days [1] read?
**A.** Its CC50 at 5 days is 27800 nM.

**Q.** What about the inhibition at 2 µM [2] of the same molecule?
**A.** The inhibition at 2 µM was 88%.

**Q.** What does the source list for CC(C)(C)OC(=O)N1CC(=O)C[C@H]1C(=O)N[C@@H](Cc1cc(F)cc(F)c1)c1ncccc1-c1ccc(F)c(C(N)=O)c1 [Example 137, (S)-tert-butyl 2-((S)-1-(3-(3-carbamoyl-4-fluorophenyl)pyridin-2-yl)-2-(3,5-difluorophenyl)ethylcarbamoyl)-4-oxopyrrolidine-1-carboxylate]?
**A.** CC50 at 5 days [1]: 21700 nM; inhibition at 2 µM [2]: 1%

**Q.** Which CC50 at 5 days [1] does the source give for NC(=O)c1cc(-c2cccnc2[C@H](Cc2cc(F)cc(F)c2)NC(=O)Cn2nc(C(F)(F)F)cc2C2CC2)ccc1F [Example 138, (S)-5-(2-(1-(2-(5-cyclopropyl-3-(trifluoromethyl)-1H-pyrazol-1-yl)acetamido)-2-(3,5-difluorophenyl)ethyl)pyridin-3-yl)-2-fluorobenzamide] here?
**A.** Its CC50 at 5 days is 24500 nM.

**Q.** What about the inhibition at 2 µM [2] of the same molecule?
**A.** The inhibition at 2 µM was 30%.

**Q.** Which CC50 at 5 days [1] does the source give for CC(C)(C)OC(=O)N1[C@@H](c2ccccc2)CC[C@H]1C(=O)N[C@@H](Cc1cc(F)cc(F)c1)c1ncccc1-c1ccc(F)c(C(N)=O)c1 [Example 139, (2S,5R)-tert-butyl 2-((S)-1-(3-(3-carbamoyl-4-fluorophenyl)pyridin-2-yl)-2-(3,5-difluorophenyl)ethylcarbamoyl)-5-phenylpyrrolidine-1-carboxylate] here?
**A.** The CC50 at 5 days was 14000 nM.

**Q.** What about the inhibition at 2 µM [2] of the same molecule?
**A.** The inhibition at 2 µM was 8%.
